Molecular target: T1, acyl-CoA:cholesterol acyltransferase (ACAT) (Oryctolagus cuniculus, UniProt G1SFD9)
T1 construct: tissue preparation containing rabbit intestinal microsomes; from tissue; host or cells: rabbit intestinal microsomes
T1 sequence (G1SFD9 1-524): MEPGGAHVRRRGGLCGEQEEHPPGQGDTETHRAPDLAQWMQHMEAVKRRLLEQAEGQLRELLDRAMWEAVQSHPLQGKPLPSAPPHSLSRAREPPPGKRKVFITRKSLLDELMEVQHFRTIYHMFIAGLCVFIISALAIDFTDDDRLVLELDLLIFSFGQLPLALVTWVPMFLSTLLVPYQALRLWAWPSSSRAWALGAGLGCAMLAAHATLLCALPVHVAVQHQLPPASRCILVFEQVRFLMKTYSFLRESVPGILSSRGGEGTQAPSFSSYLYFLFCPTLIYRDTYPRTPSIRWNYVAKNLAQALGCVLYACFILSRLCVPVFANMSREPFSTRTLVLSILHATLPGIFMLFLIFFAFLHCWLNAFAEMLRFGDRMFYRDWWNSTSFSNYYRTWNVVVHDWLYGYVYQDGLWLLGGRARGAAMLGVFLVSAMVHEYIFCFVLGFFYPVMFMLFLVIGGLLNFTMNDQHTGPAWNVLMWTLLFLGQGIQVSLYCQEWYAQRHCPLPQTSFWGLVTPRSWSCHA
Experiment: In vitro ACAT inhibition (radiolabeled cholesterol oleate formation from radiolabeled oleic acid in rabbit intestinal microsomes)
Assay type: biochemical
Conditions: concentration required to inhibit 50% the acylation of cholesterol by oleic acid
Protocol: The ability of representative compounds of the present invention to inhibit ACAT was measured using an in vitro test more fully described in Field, F. J. and Salone, R. G., Biochemica et Biophysica 712: 557-570 (1982). The test assesses the ability of a test compound to inhibit the acylation of cholesterol by oleic acid by measuring the amount of radiolabeled cholesterol oleate formed from radiolabeled oleic acid in a tissue preparation containing rabbit intestinal microsomes.

| IC50 | SMILES |
| --- | --- |
| 270 nM | Cc1cccc(C)c1NC(=O)NC1CC(C)(C)c2ccccc2C1(C)C (stereo not shown) [Example 12, N-(2,6-dimethylphenyl)-N'-(1,2,3,4-tetrahydro-1,1,4,4-tetramethyl-2-naphthalenyl)urea] |
| 89 nM | CC(C)c1cccc(C(C)C)c1NC(=O)NC1CC(C)(C)c2ccccc2C1(C)C (stereo not shown) [Example 13, N-[2,6-bis(1-methylethyl)phenyl]-N'-(1,2,3,4-tetrahydro-1,1,4,4-tetramethyl-2-naphthalenyl)urea] |
| 41 nM | CC(C)c1cccc(C(C)C)c1NC(=O)NC1CCc2ccccc2C1 (stereo not shown) [Example 9, N-[2,6-bis(1-methylethyl)phenyl]-N'-(1,2,3,4-tetrahydro-2-naphthalenyl)urea] |
| 52 nM | CC(C)c1cccc(C(C)C)c1NC(=O)NC1CCOc2ccccc2C1 (stereo not shown) [Example 8, N-[2,6-bis(1-methylethyl)phenyl]-N'-(2,3,4,5-tetrahydrobenzoxepin-4-yl)urea] |
| 84 nM | COc1ccc2c(c1)CC(CNC(=O)Nc1c(C(C)C)cccc1C(C)C)CC2 (stereo not shown) [Example 11, N-[2,6-bis(1-methylethyl)phenyl]-N'-[(1,2,3,4-tetrahydro-7-methoxy-2-naphthalenyl)methyl]urea] |
| 100 nM | CC(C)c1cccc(C(C)C)c1NC(=O)NC1COc2ccccc2C1 (stereo not shown) [Example 10, N-[2,6-bis(1-methylethyl)phenyl]-N'-(3,4-dihydro-2H-1-benzopyran-3-yl)urea] |
| 27 nM | CC(C)c1cccc(C(C)C)c1NC(=O)NCC1c2ccccc2-c2ccccc21 [Example 1, N-[2,6-bis(1-methylethyl)phenyl]-N'-(9H-fluoren-9-ylmethyl)urea] |

From patent US4868210A, “Antihyperlipidemic and antiatherosclerotic compounds and compositions” (priority 1988, dated 1989)
